Measured values taken from US9125930B2, “EGFR aptamer inhibitor for use in therapy and diagnosis” (CONSIGLIO NAZIONALE DELLE RICERCHE, priority 2010, dated 2015).

How the values were obtained:
[1] = tested on: A549 cells transfected with a specific EGFR shRNA; assay: Binding on A549 cells after EGFR gene silencing; design: species or system human; details: [32P]-labeled aptamer at 100 nM, relative to scrambled aptamer
Method: EGFR gene silencing in NSCLC A549 cells was established by transfection of high performance short hairpin RNA (shRNA) specifically targeting EGFR (from Expression Arrest™ Human shRNA Collection, Open Biosystems, Huntsville, Ala.). Cells (3.5×10^5 cells per 6 cm plate) were grown and overlaid with the transfection mixtures containing the shRNA (6 μg) against EGFR (referred as shRNAEGFR) and Lipofectamine 2000 (Invitrogen, Carlsbad, Calif.) in Opti-MEM I reduced serum medium (Invitrogen). After 5 hours incubation, complete culture medium was added to the cells and incubation was prolonged up to 72 hs. […] For binding assays transfected cells were plated in 24 well plates after 24 hs from transfection.
Binding experiments were performed with 5′-[^32P]-labeled RNA. […]
(§1) For binding experiments on cells, 3.5×10^4 cells were plated in 24-well plates in triplicate and were incubated with CL4 42-81 aptamer the scrambled sequence used as a negative control at 100 nM concentration in 200 μl of DMEM serum free for 20 min at RT in the presence of 100 μg/ml polyinosine as a nonspecific competitor (Sigma, St. Louis, Mo.). After five washings with 500 μl DMEM, bound sequences were recovered in 300 μl of SDS 1%, and the amount of radioactivity recovered was counted.

[2] = tested on: Calu1 cells; assay: Binding on Calu1 cells; design: species or system human; details: EGFR-positive; 100 nM
Method: (§2) Binding experiments were performed with 5′-[^32P]-labeled RNA. For labeling 2′-F-Py RNAs were 5′-end dephosphorylated using bacterial alcaline phosphatase (Invitrogen, Carlsbad, Calif.) before [^32P]-5′-end-labeled using T4 kinase (Invitrogen) and γ-[^32P]-ATP (6×10^3 Ci/mmol, GE Healthcare Bio-Sciences, Uppsala, Sweden) according to the supplier's instructions.
as §1

[3] = tested on: breast MCF7; assay: Binding on MCF7 cells; design: species or system human; details: no or very low expression of EGFR; 100 nM
Method: as §2, §1

[4] = target: T1, soluble extracellular domain of human EGFR (EC-EGFR) (Homo sapiens, UniProt P00533); assay: Filter binding on soluble extracellular domain of EGFR
T1 construct: purchased R&D Systems
Method: as §2
(§3) The aptamers ability to bind EGFR or ErbB3 soluble extracellular domain (EC-EGFR and EC-ErbB3) was investigated by filter binding by plotting the fraction of RNA bound to the nitrocellulose filter as a function of protein concentration, using the following equation:
(§4) [formula] where Bmax is the extrapolated maximal amount of RNA:protein complex that will be bound. 1 nM of radiolabelled aptamers (CL4 42-81 aptamer or the scrambled sequence) were incubated with 1, 3.2, 10, 32, 100, 320 and 1000 nM of EC-EGFR and EC-ErbB3 (all from R&D Systems, Minneapolis, Minn.) for 15 min at 37° in phosphate-buffered saline (PBS) supplemented with 0.01% bovine serum albumin.
(§5) In order to test the binding for dimeric and monomeric proteins, 1 nM of radiolabelled aptamers (CL4 42-81 or scrambled) were incubated with 20 nM of EC-EGFR and EC-ErbB3 without or with 5 mM DTT.
(§6) After incubation, the aptamer-protein mix was passed through nitrocellulose membrane filter (Millipore Co., Bedford, Mass.) and filters were counted. […]

[5] = target: T2, soluble extracellular domain of human ErbB3 (EC-ErbB3) (Homo sapiens, UniProt P21860); assay: Filter binding on soluble extracellular domain of ErbB3
T2 construct: purchased R&D Systems
T2 sequence (P21860 20-643 limits assumed): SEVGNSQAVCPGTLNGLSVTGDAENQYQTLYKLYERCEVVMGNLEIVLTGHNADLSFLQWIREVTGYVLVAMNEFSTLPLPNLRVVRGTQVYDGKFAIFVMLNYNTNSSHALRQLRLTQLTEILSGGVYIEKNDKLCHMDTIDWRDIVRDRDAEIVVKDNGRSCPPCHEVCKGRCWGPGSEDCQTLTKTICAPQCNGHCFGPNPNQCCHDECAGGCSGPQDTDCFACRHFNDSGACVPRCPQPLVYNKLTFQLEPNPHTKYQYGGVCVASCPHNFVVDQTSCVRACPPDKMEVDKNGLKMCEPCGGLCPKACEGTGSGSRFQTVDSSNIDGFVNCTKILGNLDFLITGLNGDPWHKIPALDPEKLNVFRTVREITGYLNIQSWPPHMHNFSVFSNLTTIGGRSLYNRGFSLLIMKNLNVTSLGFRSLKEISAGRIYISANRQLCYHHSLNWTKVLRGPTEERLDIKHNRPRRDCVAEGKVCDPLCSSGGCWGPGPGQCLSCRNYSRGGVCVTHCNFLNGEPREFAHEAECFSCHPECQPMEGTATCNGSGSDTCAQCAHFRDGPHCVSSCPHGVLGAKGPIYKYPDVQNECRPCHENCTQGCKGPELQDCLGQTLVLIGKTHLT
Method: as §2, §3, §4, §5, §6

[6] = tested on: STAT 3; assay: Immunoblot of EGF-induced STAT3 phosphorylation; format: cell-based, human; details: data not shown
Method: To assess the effects of aptamers on EGFR activity, A549 cells (1.5×10^5 cells per 3.5-cm plate) were serum-starved over night, pretreated with 200 nM CL4 42-81 aptamer or the scrambled aptamer used as a negative control for 3 h and then stimulated for 30 min with 50 ng/ml EGF (R&D Systems, Minneapolis, Minn.) either alone or in presence of each aptamer. The aptamers were subjected to a short denaturation-renaturation step (85° C. for 5 min, snap-cooled on ice for 2 min, and allowed to warm up to 37° C.) before each treatment. To prepare cell extracts, cells were washed twice in ice-cold PBS, and lysed in buffer A (50 mM Tris-HCl pH 8.0 buffer containing 150 mM NaCl, 1% Nonidet P-40, 2 mg/ml aprotinin, 1 mg/ml pepstatin, 2 mg/ml leupeptin, 1 mM Na3VO4). Protein concentration was determined by the Bradford assay using bovine serum albumin as the standard. The cell lysates were subjected to SDS-PAGE. […]

[7] = tested on: caspase-3; assay: Caspase-3 activity assay in A549 cells; format: cell-based, human; details: A549, 200 nM, 6 hs
Method: A549 cells were treated with 200 nM CL4 42-81 or the scrambled aptamer for 6 hs. To determine caspase activity cell lysates (50 μg) were incubated at 37° C. for 1 h with 50 μM of a specific fluorometric substrate (Ac-DEVD-AFC for caspase-3, Ac-IETD-AFC for caspase-8, both from Alexis Bichemicals, San Diego, Calif.). Cleavage of the fluorometric substrate were determined using a Fluorometer, with excitation at 400 nm and emission at 505 nm wavelengths.

[8] = tested on: A549 cells; assay: [3H]-thymidine incorporation assay; format: cell-based, human; details: A549, 200 nM final concentration, 24 and 48 h
Method: A549 cells were treated for 24 h or 48 h with CL4 42-81 or CL4 scrambled. During the final 6 h, cells were pulsed with 1 μCi/ml [^3H]-thymidine (45 Ci/mmol) (Amersham-Pharmacia Biosciences) added in complete growth medium and incubated at 37° C. At the end of each pulse, cells were harvested and [^3H]-thymidine incorporation was analyzed by a Beckman LS 1701 Liquid Scintillation Counter.

CL4 42-81: 2′-fluoropyrimidine nuclease-resistant RNA aptamer of 39 nt: 5′ GCCUUAGUAACGUGCUUUGAUGUCGAUUCGACAGGAGGC 3′ (SEQ ID No. 1) (2'-fluoro at CU, RNA at AG, backbone not given here)
ability to bind to A549 cells upon decreased EGFR expression [1]: significantly reduced | binding on Calu1 cells [2]: binds | binding on MCF7 cells [3]: does not bind | Kd [4]: 0.01 µM | affinity for EC-ErbB3, magnitude lower ([5]; does not bind or binds with lower affinity): at least 10^3 | Kd ([5]; filter binding, EC-ErbB3, protein up to 1000 nM): no Kd value could be calculated | EGF-induced phosphorylation of STAT 3 [6]: decreases | activation of caspase-3 [7]: strongly induce activation | [3H]-thymidine incorporation [8]: completely blocks
